Values of other authors, collected in patent US20230349886A1, “SYSTEMS AND METHODS FOR PREDICTING CARDIOTOXICITY OF MOLECULAR PARAMETERS OF A COMPOUND BASED ON MACHINE LEARNING ALGORITHMS” (UTI Limited Partnership, priority 2015, published 2023).
Read-outs that look alike come from different tables or passages of the source.

Key:
[1] = Brown dataset; flag given as 1 or 0
[2] = biological target: hERG (Homo sapiens, UniProt Q12809); as to HERG maxInhib: test concentration or dose not given here
[3] = biological target: Cav1.2 (Homo sapiens, UniProt Q13936); as to CAV1.2 max inhib: test concentration or dose not given here
Cav1.2, sequence (Q13936 1-2138 isoform Q13936-12): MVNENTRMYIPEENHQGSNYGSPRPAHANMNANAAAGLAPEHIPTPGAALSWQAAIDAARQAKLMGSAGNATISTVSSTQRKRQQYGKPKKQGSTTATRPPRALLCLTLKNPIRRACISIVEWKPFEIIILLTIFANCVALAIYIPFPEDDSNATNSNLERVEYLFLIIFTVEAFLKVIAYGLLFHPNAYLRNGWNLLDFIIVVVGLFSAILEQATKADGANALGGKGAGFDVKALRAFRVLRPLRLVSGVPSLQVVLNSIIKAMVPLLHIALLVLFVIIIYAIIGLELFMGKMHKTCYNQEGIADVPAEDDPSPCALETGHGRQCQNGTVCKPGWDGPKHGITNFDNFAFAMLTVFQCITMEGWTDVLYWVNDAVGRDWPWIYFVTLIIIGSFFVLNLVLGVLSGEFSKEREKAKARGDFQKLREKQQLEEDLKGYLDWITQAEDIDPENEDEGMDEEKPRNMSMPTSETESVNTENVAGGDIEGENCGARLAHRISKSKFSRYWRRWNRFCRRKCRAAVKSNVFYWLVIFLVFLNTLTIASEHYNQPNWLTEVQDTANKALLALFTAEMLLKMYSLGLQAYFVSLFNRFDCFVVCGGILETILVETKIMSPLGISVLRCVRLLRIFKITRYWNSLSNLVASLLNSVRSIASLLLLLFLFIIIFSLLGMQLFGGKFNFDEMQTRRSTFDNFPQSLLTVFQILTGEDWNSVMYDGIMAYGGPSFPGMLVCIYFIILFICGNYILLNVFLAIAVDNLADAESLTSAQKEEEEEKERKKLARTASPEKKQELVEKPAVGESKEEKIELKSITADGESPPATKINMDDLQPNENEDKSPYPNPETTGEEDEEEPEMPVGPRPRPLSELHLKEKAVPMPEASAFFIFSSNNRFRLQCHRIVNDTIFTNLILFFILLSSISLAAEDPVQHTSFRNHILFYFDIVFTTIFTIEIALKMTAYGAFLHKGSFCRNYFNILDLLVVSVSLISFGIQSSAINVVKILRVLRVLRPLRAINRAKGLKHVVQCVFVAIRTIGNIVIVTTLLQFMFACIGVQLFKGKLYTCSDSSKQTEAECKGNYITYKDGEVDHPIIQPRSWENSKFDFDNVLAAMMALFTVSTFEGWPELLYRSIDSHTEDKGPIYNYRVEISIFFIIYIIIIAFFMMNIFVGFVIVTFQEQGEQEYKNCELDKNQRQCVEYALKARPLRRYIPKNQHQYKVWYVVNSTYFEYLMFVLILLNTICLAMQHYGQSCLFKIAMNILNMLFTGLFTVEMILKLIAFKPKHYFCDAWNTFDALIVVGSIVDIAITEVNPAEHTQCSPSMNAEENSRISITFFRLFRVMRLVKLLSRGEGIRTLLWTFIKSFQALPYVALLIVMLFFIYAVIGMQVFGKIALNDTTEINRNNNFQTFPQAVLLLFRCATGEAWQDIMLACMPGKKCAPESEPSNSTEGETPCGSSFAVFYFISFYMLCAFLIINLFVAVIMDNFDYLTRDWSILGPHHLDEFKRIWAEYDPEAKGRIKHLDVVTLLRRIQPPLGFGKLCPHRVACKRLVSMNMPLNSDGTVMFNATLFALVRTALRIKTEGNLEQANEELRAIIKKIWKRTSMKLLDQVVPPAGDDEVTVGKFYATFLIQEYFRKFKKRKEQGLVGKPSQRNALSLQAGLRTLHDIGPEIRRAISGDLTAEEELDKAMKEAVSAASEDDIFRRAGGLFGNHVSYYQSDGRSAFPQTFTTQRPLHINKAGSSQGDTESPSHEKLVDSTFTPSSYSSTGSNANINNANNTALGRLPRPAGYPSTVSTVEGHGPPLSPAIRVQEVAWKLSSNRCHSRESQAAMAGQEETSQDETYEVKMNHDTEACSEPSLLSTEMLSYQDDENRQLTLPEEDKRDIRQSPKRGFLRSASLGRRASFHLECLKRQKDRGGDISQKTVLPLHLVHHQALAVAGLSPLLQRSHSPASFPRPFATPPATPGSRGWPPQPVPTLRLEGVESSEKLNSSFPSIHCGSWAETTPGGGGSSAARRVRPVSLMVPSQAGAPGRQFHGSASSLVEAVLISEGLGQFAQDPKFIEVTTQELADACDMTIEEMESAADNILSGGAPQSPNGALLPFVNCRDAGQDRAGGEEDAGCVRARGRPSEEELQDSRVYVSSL
Cav1.2, sequence (Q08289 whole entry partner): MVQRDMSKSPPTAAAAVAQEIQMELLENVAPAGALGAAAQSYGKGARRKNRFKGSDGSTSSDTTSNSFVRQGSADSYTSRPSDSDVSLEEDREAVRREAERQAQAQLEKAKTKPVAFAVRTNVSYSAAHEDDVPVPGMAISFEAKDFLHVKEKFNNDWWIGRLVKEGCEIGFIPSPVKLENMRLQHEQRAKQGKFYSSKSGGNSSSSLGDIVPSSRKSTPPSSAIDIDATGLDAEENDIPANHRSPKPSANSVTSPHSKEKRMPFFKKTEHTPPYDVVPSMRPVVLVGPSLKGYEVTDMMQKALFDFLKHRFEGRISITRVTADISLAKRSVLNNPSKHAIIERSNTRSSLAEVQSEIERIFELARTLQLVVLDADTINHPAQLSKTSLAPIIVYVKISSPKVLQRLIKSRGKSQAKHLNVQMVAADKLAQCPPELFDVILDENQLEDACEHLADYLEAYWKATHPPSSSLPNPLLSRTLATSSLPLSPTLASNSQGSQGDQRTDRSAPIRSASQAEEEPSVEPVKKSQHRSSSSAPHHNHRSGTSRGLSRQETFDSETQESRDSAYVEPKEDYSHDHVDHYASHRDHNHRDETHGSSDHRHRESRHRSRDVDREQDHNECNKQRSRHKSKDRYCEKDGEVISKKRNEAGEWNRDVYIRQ
Cav1.2, sequence (P54289 25-946 partner limits assumed): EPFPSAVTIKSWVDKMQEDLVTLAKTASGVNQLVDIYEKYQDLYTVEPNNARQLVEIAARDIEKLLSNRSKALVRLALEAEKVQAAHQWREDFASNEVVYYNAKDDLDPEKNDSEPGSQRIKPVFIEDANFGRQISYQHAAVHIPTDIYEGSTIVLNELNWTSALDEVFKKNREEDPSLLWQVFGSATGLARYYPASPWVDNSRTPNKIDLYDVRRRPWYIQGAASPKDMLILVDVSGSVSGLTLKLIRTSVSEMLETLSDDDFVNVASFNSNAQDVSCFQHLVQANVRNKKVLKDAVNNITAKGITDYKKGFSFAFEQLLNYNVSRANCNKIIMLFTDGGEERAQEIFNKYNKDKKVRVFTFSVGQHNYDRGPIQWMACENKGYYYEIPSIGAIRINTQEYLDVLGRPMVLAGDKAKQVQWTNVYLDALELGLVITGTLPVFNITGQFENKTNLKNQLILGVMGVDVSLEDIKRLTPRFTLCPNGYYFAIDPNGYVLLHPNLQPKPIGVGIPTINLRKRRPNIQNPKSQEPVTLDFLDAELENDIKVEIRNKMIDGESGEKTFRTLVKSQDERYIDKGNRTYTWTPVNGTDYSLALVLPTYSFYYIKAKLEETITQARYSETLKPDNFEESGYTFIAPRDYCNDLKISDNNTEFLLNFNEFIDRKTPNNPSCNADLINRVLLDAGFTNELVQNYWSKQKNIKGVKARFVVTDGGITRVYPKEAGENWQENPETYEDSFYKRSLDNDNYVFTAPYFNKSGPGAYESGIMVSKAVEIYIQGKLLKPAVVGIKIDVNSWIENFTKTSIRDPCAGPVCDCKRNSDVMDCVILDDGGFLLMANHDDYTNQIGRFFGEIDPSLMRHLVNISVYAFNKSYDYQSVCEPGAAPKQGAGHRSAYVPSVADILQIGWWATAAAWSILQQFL
Cav1.2, sequence (P54289 947-1103 partner limits assumed): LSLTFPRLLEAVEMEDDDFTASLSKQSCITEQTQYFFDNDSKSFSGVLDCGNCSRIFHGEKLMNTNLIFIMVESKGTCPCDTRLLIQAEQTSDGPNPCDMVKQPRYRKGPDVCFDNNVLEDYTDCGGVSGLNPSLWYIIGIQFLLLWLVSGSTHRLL

[4] = biological target: Nav1.5 (Homo sapiens, UniProt Q14524); details: for IC50: read-out: NAV1.5 IC50; as to NAV1.5 max inhib: test concentration or dose not given here
[5] = read-out: HERG IC50, Brown dataset
[6] = read-out: CAV1.2 IC50, Brown dataset
[7] = Table 11, calculated from HERG-IC50 of the Kramer et al. 2013 data

hERG, sequence (Q12809 whole entry): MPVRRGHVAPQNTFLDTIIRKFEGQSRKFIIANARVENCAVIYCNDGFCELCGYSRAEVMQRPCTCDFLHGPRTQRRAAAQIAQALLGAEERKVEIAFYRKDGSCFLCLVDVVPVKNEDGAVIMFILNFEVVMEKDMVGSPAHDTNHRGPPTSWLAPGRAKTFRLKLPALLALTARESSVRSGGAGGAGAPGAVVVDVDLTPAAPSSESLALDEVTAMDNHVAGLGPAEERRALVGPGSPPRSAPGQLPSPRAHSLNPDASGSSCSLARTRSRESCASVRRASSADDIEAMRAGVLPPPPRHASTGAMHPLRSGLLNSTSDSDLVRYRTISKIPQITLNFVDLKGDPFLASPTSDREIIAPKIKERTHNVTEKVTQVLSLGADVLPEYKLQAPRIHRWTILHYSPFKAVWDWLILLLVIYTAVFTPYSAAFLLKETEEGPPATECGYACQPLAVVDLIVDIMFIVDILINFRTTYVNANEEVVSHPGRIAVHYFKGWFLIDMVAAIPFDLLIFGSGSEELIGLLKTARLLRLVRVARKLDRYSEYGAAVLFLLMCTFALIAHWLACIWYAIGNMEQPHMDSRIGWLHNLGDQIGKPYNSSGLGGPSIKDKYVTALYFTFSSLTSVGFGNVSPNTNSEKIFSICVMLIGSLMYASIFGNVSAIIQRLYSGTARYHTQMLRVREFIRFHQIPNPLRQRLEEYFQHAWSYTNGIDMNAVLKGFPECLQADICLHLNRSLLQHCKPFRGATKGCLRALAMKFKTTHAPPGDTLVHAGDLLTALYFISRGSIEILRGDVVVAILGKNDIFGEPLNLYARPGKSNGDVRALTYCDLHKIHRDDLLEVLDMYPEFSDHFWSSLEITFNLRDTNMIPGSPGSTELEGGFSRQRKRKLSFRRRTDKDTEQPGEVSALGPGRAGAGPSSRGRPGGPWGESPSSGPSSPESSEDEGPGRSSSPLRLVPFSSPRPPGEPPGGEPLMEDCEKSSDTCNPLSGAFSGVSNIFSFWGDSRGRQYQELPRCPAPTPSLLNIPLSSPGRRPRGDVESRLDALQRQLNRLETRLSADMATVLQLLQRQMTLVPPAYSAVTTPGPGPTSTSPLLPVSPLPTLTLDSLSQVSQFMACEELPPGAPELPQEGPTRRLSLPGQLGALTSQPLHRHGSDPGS

SMILES | Ris (TdP risk flag) [1] | CAV1.2 max inhib ([3]; Brown dataset) | IC50 [3, 6] [µM] | NAV1.5 max inhib ([4]; Brown dataset) | IC50 ([4]; Brown dataset) [µM] | also measured
CCCCc1oc2ccccc2c1C(=O)c1cc(I)c(OCCN(CC)CC)c(I)c1 [amiodaron] | 1 | – | – | – | – | –
CN(C)CCCN1c2ccccc2Sc2ccc(Cl)cc21 [chlorprom ne] | 1 | – | – | – | – | HERG maxInhib ([2]; Brown dataset): 96.7; IC50 [2, 5]: 1.5 µM
COc1cc(N)c(Cl)cc1C(=O)NC1CCN(CCCOc2ccc(F)cc2)CC1OC (stereo not drawn) [cisapride] | 1 | 42.8 | 11.8 | 22.9 | 337 | –
CN1CCN(C2=Nc3cc(Cl)ccc3Nc3ccccc32)CC1 [clozapine] | – | 73.5 | – | 91.8 | 15.1 | HERG maxInhib ([2]; Brown dataset): 97.7
CN1C(=O)CN=C(c2ccccc2)c2cc(Cl)ccc21 [diazepam] | 0 | – | – | – | – | –
CC(C)N(CCC(C(N)=O)(c1ccccc1)c1ccccn1)C(C)C (stereo not drawn) [disopyrami] | – | – | – | 68.9 | 168 | CAV1.2 max inhib [3]: 22.1; CAV1.2 pIC50 [3]: 2.9843 902; IC50 [3]: 1040 µM
CN(CCOc1ccc(NS(C)(=O)=O)cc1)CCc1ccc(NS(C)(=O)=O)cc1 [dofetilide] | 1 | 54.2 | – | – | – | –
O=C(CCCN1CC=C(n2c(=O)[nH]c3ccccc32)CC1)c1ccc(F)cc1 [droperidol] | 1 | 83.4 | 7.6 | 59 | 22.7 | –
CNCC[C@H](Oc1cccc2ccccc12)c1cccs1 [duloxetine] | 0 | 99.8 | 2.8 | – | – | HERG maxInhib [2]: 96.3; NAV1.5 max inhib [4]: 100; IC50 [4]: 5.1 µM
CCCCN(CCCC)CCC(O)c1cc2c(Cl)cc(Cl)cc2c2cc(C(F)(F)F)ccc12 (stereo not drawn) [halofantrin] | – | – | – | 8.3 | 331 | HERG maxInhib [2]: 77.9; HERG pIC50 [2]: 6.4202 403; IC50 [2]: 0.38 µM
CCCCN(CCCC)CCC(O)c1cc2c(Cl)cc(Cl)cc2c2cc(C(F)(F)F)ccc12 (stereo not drawn) [halofantrine] | – | – | – | – | – | pIC50 [2]: 6.42
O=C(CCCN1CCC(O)(c2ccc(Cl)cc2)CC1)c1ccc(F)cc1 [haloperidol] | – | 94 | – | 96.6 | – | HERG maxInhib [2]: 89.2
CC(=O)NC[C@H]1CN(c2ccc(N3CCOCC3)c(F)c2)C(=O)O1 [linezolid] | 0 | 70.3 | 105 | 9.6 | 2640 | HERG maxInhib ([2]; Brown dataset): 19.3; pIC50 [2, 7]: 2.94; IC50 [2, 5]: 1150 µM
CCOC(=O)N1CCC(=C2c3ccc(Cl)cc3CCc3cccnc32)CC1 [loratadine] | 0 | – | – | – | – | –
CCC(=O)C(CC(C)N(C)C)(c1ccccc1)c1ccccc1 (stereo not drawn) [methadone] | 1 | 96.9 | – | 100 | 31.8 | HERG maxInhib ([2]; Brown dataset): 91.6; pIC50 [2, 7]: 5.456; IC50 [2, 5]: 3.5 µM
COCC(=O)O[C@]1(CCN(C)CCCc2nc3ccccc3[nH]2)CCc2cc(F)ccc2[C@@H]1C(C)C [mibefradil] | 0 | 92.1 | – | 100 | – | –
COc1c(N2C[C@@H]3CCCN[C@@H]3C2)c(F)cc2c(=O)c(C(=O)O)cn(C3CC3)c12 [moxifloxacin] | – | 53.7 | – | 17.4 | – | HERG maxInhib ([2]; Brown dataset): 75.9

SMILES | Ris (TdP risk flag) [1] | CAV1.2 max inhib ([3]; Brown dataset) | IC50 [3, 6] [µM] | NAV1.5 max inhib ([4]; Brown dataset) | IC50 ([4]; Brown dataset) [µM] | also measured
Cc1cn(-c2cc(NC(=O)c3ccc(C)c(Nc4nccc(-c5cccnc5)n4)c3)cc(C(F)(F)F)c2)cn1 [nilotinib] | – | 32.4 | – | – | – | –
CCOC(=O)C1=C(C)NC(C)=C(C(=O)OC)C1c1cccc([N+](=O)[O-])c1 (stereo not drawn) [nitrendipine] | 0 | 74.6 | – | 86.3 | 21.6 | HERG maxInhib ([2]; Brown dataset): 68.3; pIC50 [2, 7]: 4.609; IC50 [2, 5]: 24.6 µM
Cc1nc2n(c(=O)c1CCN1CCC(c3noc4cc(F)ccc34)CC1)CCCC2O (stereo not drawn) [paliperidone] | 1 | 33.1 | 194 | 51.2 | 109 | –
CCCC(C)C1(CC)C(=O)NC(=O)NC1=O (stereo not drawn) [pentobarbital] | 0 | 82.1 | 299 | 9 | 2690 | HERG maxInhib [2]: 39.5; HERG pIC50 [2]: 2.843 135; IC50 [2]: 1430 µM; pIC50 [2]: 2.843
O=c1[nH]c2ccccc2n1C1CCN(CCCC(c2ccc(F)cc2)c2ccc(F)cc2)CC1 [pimozide] | 1 | 88.1 | – | – | – | HERG maxInhib [2]: 91.3
CCN1CCN(C(=O)N[C@@H](C(=O)N[C@@H]2C(=O)N3[C@@H]2SC(C)(C)[C@@H]3C(=O)O)c2ccccc2)C(=O)C1=O [piperacillin] | – | 15.9 | 1230 | 9.7 | 2430 | –
CCN(CC)CCNC(=O)c1ccc(N)cc1 [procainamide] | – | – | – | – | – | HERG maxInhib ([2]; Brown dataset): 50.7
C=C[C@H]1C[N@@]2CC[C@H]1C[C@@H]2[C@@H](O)c1ccnc2ccc(OC)cc12 [quinidine] | 1 | 58 | – | 97.5 | – | –
NC(=O)c1ncn([C@@H]2O[C@H](CO)[C@@H](O)[C@H]2O)n1 [ribavirin] | 0 | 31.9 | 622 | 6.9 | 3000 | HERG maxInhib ([2]; Brown dataset): 21.4; pIC50 [2, 7]: 3.015; IC50 [2, 5]: 967 µM
CC(C)(C)NC(=O)[C@@H]1C[C@@H]2CCCC[C@@H]2CN1C[C@@H](O)[C@H](Cc1ccccc1)NC(=O)[C@H](CC(N)=O)NC(=O)c1ccc2ccccc2n1 [saquinavir] | – | – | – | – | – | HERG maxInhib ([2]; Brown dataset): 73.1; pIC50 [2, 7]: 4.772; IC50 [2, 5]: 16.9 µM
O=C1NCCN1CCN1CCC(c2cn(-c3ccc(F)cc3)c3ccc(Cl)cc23)CC1 [sertindole] | 1 | 91.5 | 6.3 | 95.5 | 6.9 | –
O=C(O[C@H]1CN2CCC1CC2)N1CCc2ccccc2[C@@H]1c1ccccc1 [solifenacin] | – | 96.4 | – | 100 | – | –
CCN(CC)CCNC(=O)c1c(C)[nH]c(/C=C2\C(=O)Nc3ccc(F)cc32)c1C [sunitinib] | 1 | 61.5 | 33.4 | 66.4 | – | –
Cc1cn([C@@H]2C[C@@H](O)[C@H](CO)O2)c(=O)[nH]c1=O [telbivudine] | – | 22.1 | 714 | 15.1 | 1100 | HERG maxInhib ([2]; Brown dataset): 17.4; pIC50 [2, 7]: 3.374; IC50 [2, 5]: 423 µM
CC(C)(C)c1ccc(C(O)CCCN2CCC(C(O)(c3ccccc3)c3ccccc3)CC2)cc1 (stereo not drawn) [terfenadine] | – | 98 | – | 99 | – | –
CC(CC(c1ccccc1)c1ccccc1)NC(C)(C)C (stereo not drawn) [terodiline] | 1 | 95.4 | 4.8 | 100 | 7.4 | –
CSc1ccc2c(c1)N(CCC1CCCCN1C)c1ccccc1S2 (stereo not drawn) [thioridazine] | – | 82.9 | – | 99.3 | – | –
C[C@@H](c1ncncc1F)[C@](O)(Cn1cncn1)c1ccc(F)cc1F [voriconazole] | – | 40.9 | 414 | 15.8 | 1550 | –
